From ChEMBL document CHEMBL1909046, “DrugMatrix in vitro pharmacology data”

Target: C-C chemokine receptor type 5 (Homo sapiens, UniProt P51681); note: in other assays of this panel Not Active means under 50% inhibition at 10 µM
Format: cell membranes, Membrane
Details: hek293

C-C chemokine receptor type 5, sequence (P51681 whole entry): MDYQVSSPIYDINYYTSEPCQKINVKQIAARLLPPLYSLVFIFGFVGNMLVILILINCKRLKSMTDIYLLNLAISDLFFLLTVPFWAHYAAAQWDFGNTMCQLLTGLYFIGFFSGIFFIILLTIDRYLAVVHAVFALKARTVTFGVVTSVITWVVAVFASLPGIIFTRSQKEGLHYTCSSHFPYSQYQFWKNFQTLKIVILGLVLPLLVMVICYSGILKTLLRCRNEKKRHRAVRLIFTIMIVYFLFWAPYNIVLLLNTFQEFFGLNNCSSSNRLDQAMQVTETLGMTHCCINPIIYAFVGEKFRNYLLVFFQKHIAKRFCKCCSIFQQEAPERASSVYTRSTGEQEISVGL

Row | SMILES | IC50
1 | COc1cc([C@@H]2c3cc4c(cc3[C@@H](O[C@@H]3O[C@@H]5CO[C@@H](C)O[C@H]5[C@H](O)[C@H]3O)[C@H]3COC(=O)[C@H]23)OCO4)cc(OC)c1O [ETOPOSIDE] | Not Active
2 | C=CCc1ccc(O)c(OC)c1 [EUGENOL] | Not Active
3 | CC(C(=O)O)c1cccc(Oc2ccccc2)c1 (centres undefined) [FENOPROFEN] | Not Active
4 | CC(C)(C)NC(=O)[C@H]1CC[C@H]2[C@@H]3CC[C@H]4NC(=O)C=C[C@]4(C)[C@H]3CC[C@]12C [FINASTERIDE] | Not Active
5 | COc1ccc2c3c1O[C@H]1C[C@@H](O)C=C[C@@]31CCN(C)C2 [GALANTAMINE] | Not Active
6 | Nc1ccn([C@@H]2O[C@H](CO)[C@@H](O)C2(F)F)c(=O)n1 [GEMCITABINE] | Not Active
7 | CC(C)=CCC/C(C)=C/CO [GERANIOL] | Not Active
8 | N=C(N)NC(=O)Cc1c(Cl)cccc1Cl [GUANFACINE] | Not Active
9 | Oc1c(Cl)cc(Cl)c(Cl)c1Cc1c(O)c(Cl)cc(Cl)c1Cl [HEXACHLOROPHENE] | Not Active

Target: Platelet-activating factor receptor (Homo sapiens, UniProt P25105); note: in other assays of this panel Not Active means under 50% inhibition at 10 µM
Sequence (P25105 whole entry): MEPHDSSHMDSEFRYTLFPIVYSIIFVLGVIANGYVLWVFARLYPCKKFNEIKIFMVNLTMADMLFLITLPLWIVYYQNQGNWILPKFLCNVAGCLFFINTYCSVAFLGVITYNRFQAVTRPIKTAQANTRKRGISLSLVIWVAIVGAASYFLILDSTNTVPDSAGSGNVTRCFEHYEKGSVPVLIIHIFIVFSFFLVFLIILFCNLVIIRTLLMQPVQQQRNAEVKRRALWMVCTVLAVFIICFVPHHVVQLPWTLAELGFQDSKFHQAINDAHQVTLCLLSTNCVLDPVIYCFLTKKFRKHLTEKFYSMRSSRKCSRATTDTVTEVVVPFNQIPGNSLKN
Format: tissue-based
Details: not given

Row | SMILES | IC50
10 | COc1cc([C@@H]2c3cc4c(cc3[C@@H](O[C@@H]3O[C@@H]5CO[C@@H](C)O[C@H]5[C@H](O)[C@H]3O)[C@H]3COC(=O)[C@H]23)OCO4)cc(OC)c1O [ETOPOSIDE] | Not Active
11 | C=CCc1ccc(O)c(OC)c1 [EUGENOL] | Not Active
12 | CC(C(=O)O)c1cccc(Oc2ccccc2)c1 (centres undefined) [FENOPROFEN] | Not Active
13 | CC(C)(C)NC(=O)[C@H]1CC[C@H]2[C@@H]3CC[C@H]4NC(=O)C=C[C@]4(C)[C@H]3CC[C@]12C [FINASTERIDE] | Not Active
14 | COc1ccc2c3c1O[C@H]1C[C@@H](O)C=C[C@@]31CCN(C)C2 [GALANTAMINE] | Not Active
15 | Nc1ccn([C@@H]2O[C@H](CO)[C@@H](O)C2(F)F)c(=O)n1 [GEMCITABINE] | Not Active
16 | CC(C)=CCC/C(C)=C/CO [GERANIOL] | Not Active
17 | N=C(N)NC(=O)Cc1c(Cl)cccc1Cl [GUANFACINE] | Not Active
18 | Oc1c(Cl)cc(Cl)c(Cl)c1Cc1c(O)c(Cl)cc(Cl)c1Cl [HEXACHLOROPHENE] | Not Active

Target: Nitric oxide synthase 1 (Rattus norvegicus, UniProt P29476); note: in other assays of this panel Not Active means under 50% inhibition at 10 µM
Sequence (P29476 whole entry): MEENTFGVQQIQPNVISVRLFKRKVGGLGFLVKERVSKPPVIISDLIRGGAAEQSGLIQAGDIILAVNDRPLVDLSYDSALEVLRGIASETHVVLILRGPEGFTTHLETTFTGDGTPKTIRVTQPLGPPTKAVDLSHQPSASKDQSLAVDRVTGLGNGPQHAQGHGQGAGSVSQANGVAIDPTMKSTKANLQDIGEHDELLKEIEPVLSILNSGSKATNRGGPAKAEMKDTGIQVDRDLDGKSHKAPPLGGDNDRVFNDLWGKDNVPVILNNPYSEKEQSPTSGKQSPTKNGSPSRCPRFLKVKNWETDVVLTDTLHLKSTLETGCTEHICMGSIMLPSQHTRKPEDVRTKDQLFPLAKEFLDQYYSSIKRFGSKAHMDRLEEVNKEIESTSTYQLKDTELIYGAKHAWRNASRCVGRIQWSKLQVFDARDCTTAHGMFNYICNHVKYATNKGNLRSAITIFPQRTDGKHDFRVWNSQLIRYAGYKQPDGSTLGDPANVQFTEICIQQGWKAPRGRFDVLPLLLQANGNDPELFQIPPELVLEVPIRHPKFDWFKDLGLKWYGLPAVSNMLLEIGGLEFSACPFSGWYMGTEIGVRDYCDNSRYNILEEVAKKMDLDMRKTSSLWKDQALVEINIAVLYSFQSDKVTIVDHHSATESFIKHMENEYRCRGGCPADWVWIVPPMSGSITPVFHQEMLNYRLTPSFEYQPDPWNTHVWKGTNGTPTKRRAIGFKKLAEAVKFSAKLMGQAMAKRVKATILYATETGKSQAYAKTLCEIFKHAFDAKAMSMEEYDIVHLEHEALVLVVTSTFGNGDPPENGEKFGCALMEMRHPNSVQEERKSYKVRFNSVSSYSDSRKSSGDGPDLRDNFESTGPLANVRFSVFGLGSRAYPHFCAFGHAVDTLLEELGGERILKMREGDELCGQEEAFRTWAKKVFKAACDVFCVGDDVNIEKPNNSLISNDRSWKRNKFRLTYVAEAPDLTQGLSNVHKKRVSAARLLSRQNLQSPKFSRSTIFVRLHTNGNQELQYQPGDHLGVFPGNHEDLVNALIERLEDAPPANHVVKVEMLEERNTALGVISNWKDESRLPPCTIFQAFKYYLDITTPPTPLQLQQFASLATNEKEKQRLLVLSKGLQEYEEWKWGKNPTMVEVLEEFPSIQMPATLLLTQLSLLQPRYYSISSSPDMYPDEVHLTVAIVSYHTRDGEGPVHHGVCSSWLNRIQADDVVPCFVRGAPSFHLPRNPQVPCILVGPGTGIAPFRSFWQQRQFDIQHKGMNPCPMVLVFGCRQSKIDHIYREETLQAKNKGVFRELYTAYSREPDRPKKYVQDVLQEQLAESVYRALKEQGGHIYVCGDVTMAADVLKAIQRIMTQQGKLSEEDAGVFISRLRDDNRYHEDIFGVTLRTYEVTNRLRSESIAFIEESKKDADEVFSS
Format: tissue-based, Cerebellum
Details: not given

Row | SMILES | IC50
19 | COc1cc([C@@H]2c3cc4c(cc3[C@@H](O[C@@H]3O[C@@H]5CO[C@@H](C)O[C@H]5[C@H](O)[C@H]3O)[C@H]3COC(=O)[C@H]23)OCO4)cc(OC)c1O [ETOPOSIDE] | Not Active
20 | C=CCc1ccc(O)c(OC)c1 [EUGENOL] | Not Active
21 | CC(C(=O)O)c1cccc(Oc2ccccc2)c1 (centres undefined) [FENOPROFEN] | Not Active
22 | CC(C)(C)NC(=O)[C@H]1CC[C@H]2[C@@H]3CC[C@H]4NC(=O)C=C[C@]4(C)[C@H]3CC[C@]12C [FINASTERIDE] | Not Active
23 | COc1ccc2c3c1O[C@H]1C[C@@H](O)C=C[C@@]31CCN(C)C2 [GALANTAMINE] | Not Active
24 | Nc1ccn([C@@H]2O[C@H](CO)[C@@H](O)C2(F)F)c(=O)n1 [GEMCITABINE] | Not Active
25 | CC(C)=CCC/C(C)=C/CO [GERANIOL] | Not Active
26 | N=C(N)NC(=O)Cc1c(Cl)cccc1Cl [GUANFACINE] | Not Active
27 | Oc1c(Cl)cc(Cl)c(Cl)c1Cc1c(O)c(Cl)cc(Cl)c1Cl [HEXACHLOROPHENE] | Not Active

Target: T1, Leukotriene C4 synthase (Cavia porcellus, UniProt A6XA80);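 note: enzyme inhibition assay of leukotriene C4 synthase, using LTA4 as the substrate; in other assays of this panel Not Active means under 50% inhibition at 10 µM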
T1 sequence (A6XA80 whole entry): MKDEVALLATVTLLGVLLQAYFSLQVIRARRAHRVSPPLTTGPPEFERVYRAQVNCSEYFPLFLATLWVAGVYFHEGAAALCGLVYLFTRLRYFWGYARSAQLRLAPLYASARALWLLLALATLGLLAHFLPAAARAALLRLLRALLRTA
Format: tissue-based, Lung
Details: not given

Row | SMILES | IC50
28 | COc1cc([C@@H]2c3cc4c(cc3[C@@H](O[C@@H]3O[C@@H]5CO[C@@H](C)O[C@H]5[C@H](O)[C@H]3O)[C@H]3COC(=O)[C@H]23)OCO4)cc(OC)c1O [ETOPOSIDE] | Not Active
29 | C=CCc1ccc(O)c(OC)c1 [EUGENOL] | Not Active
30 | CC(C(=O)O)c1cccc(Oc2ccccc2)c1 (centres undefined) [FENOPROFEN] | Not Active
31 | CC(C)(C)NC(=O)[C@H]1CC[C@H]2[C@@H]3CC[C@H]4NC(=O)C=C[C@]4(C)[C@H]3CC[C@]12C [FINASTERIDE] | Not Active
32 | COc1ccc2c3c1O[C@H]1C[C@@H](O)C=C[C@@]31CCN(C)C2 [GALANTAMINE] | Not Active
33 | Nc1ccn([C@@H]2O[C@H](CO)[C@@H](O)C2(F)F)c(=O)n1 [GEMCITABINE] | Not Active
34 | CC(C)=CCC/C(C)=C/CO [GERANIOL] | Not Active
35 | N=C(N)NC(=O)Cc1c(Cl)cccc1Cl [GUANFACINE] | Not Active
36 | Oc1c(Cl)cc(Cl)c(Cl)c1Cc1c(O)c(Cl)cc(Cl)c1Cl [HEXACHLOROPHENE] | Not Active

Test system: not listed separately
Assay: DRUGMATRIX: Sodium/nucleoside co-transporter radioligand binding (ligand: nitrobenzylthioinosine)
Format: cell membranes, Cavia porcellus, Dunkin-Hartley, Cerebral cortex, Membrane
Details: Not Active = under 50% inhibition at 10 µM

Row | SMILES | IC50 | Ki
37 | COc1cc([C@@H]2c3cc4c(cc3[C@@H](O[C@@H]3O[C@@H]5CO[C@@H](C)O[C@H]5[C@H](O)[C@H]3O)[C@H]3COC(=O)[C@H]23)OCO4)cc(OC)c1O [ETOPOSIDE] | Not Active | Not Active
38 | C=CCc1ccc(O)c(OC)c1 [EUGENOL] | Not Active | Not Active
39 | CC(C(=O)O)c1cccc(Oc2ccccc2)c1 (centres undefined) [FENOPROFEN] | Not Active | Not Active
40 | CC(C)(C)NC(=O)[C@H]1CC[C@H]2[C@@H]3CC[C@H]4NC(=O)C=C[C@]4(C)[C@H]3CC[C@]12C [FINASTERIDE] | Not Active | Not Active
41 | COc1ccc2c3c1O[C@H]1C[C@@H](O)C=C[C@@]31CCN(C)C2 [GALANTAMINE] | Not Active | Not Active
42 | Nc1ccn([C@@H]2O[C@H](CO)[C@@H](O)C2(F)F)c(=O)n1 [GEMCITABINE] | Not Active | Not Active
43 | CC(C)=CCC/C(C)=C/CO [GERANIOL] | Not Active | Not Active
44 | N=C(N)NC(=O)Cc1c(Cl)cccc1Cl [GUANFACINE] | Not Active | Not Active
45 | Oc1c(Cl)cc(Cl)c(Cl)c1Cc1c(O)c(Cl)cc(Cl)c1Cl [HEXACHLOROPHENE] | Not Active | Not Active

Target: C-C chemokine receptor type 2 (Homo sapiens, UniProt P41597); note: in other assays of this panel Not Active means under 50% inhibition at 10 µM
Sequence (P41597 whole entry): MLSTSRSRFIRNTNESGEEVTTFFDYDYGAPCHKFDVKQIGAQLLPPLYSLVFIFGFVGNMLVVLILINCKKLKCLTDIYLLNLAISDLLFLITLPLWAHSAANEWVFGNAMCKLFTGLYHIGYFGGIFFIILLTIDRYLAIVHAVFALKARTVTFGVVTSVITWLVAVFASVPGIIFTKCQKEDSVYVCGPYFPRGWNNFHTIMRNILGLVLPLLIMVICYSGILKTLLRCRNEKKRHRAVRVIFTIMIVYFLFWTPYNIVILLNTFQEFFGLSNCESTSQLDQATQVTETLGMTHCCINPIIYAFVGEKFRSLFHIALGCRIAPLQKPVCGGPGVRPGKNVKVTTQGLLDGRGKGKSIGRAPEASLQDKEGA
Format: cell membranes, Membrane
Details: cho-k1

Row | SMILES | IC50
46 | COc1cc([C@@H]2c3cc4c(cc3[C@@H](O[C@@H]3O[C@@H]5CO[C@@H](C)O[C@H]5[C@H](O)[C@H]3O)[C@H]3COC(=O)[C@H]23)OCO4)cc(OC)c1O [ETOPOSIDE] | Not Active
47 | C=CCc1ccc(O)c(OC)c1 [EUGENOL] | Not Active
48 | CC(C(=O)O)c1cccc(Oc2ccccc2)c1 (centres undefined) [FENOPROFEN] | Not Active
49 | CC(C)(C)NC(=O)[C@H]1CC[C@H]2[C@@H]3CC[C@H]4NC(=O)C=C[C@]4(C)[C@H]3CC[C@]12C [FINASTERIDE] | Not Active
50 | COc1ccc2c3c1O[C@H]1C[C@@H](O)C=C[C@@]31CCN(C)C2 [GALANTAMINE] | Not Active
51 | Nc1ccn([C@@H]2O[C@H](CO)[C@@H](O)C2(F)F)c(=O)n1 [GEMCITABINE] | Not Active
52 | CC(C)=CCC/C(C)=C/CO [GERANIOL] | Not Active
53 | N=C(N)NC(=O)Cc1c(Cl)cccc1Cl [GUANFACINE] | Not Active
54 | Oc1c(Cl)cc(Cl)c(Cl)c1Cc1c(O)c(Cl)cc(Cl)c1Cl [HEXACHLOROPHENE] | Not Active

Target: Delta-type opioid receptor (Homo sapiens, UniProt P41143); note: in other assays of this panel Not Active means under 50% inhibition at 10 µM
Sequence (P41143 whole entry): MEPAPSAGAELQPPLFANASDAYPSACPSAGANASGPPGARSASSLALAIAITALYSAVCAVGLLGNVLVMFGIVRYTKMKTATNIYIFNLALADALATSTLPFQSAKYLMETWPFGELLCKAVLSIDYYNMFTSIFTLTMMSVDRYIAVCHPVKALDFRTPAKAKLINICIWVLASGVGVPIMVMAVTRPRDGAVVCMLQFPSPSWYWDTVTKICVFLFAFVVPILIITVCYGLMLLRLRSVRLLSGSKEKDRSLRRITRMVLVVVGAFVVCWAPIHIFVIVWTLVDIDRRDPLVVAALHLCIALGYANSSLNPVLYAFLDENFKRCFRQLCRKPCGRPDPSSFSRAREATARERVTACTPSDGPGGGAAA
Format: cell membranes, Membrane
Details: hek293

Row | SMILES | IC50
55 | COc1cc([C@@H]2c3cc4c(cc3[C@@H](O[C@@H]3O[C@@H]5CO[C@@H](C)O[C@H]5[C@H](O)[C@H]3O)[C@H]3COC(=O)[C@H]23)OCO4)cc(OC)c1O [ETOPOSIDE] | Not Active
56 | C=CCc1ccc(O)c(OC)c1 [EUGENOL] | Not Active
57 | CC(C(=O)O)c1cccc(Oc2ccccc2)c1 (centres undefined) [FENOPROFEN] | Not Active
58 | CC(C)(C)NC(=O)[C@H]1CC[C@H]2[C@@H]3CC[C@H]4NC(=O)C=C[C@]4(C)[C@H]3CC[C@]12C [FINASTERIDE] | Not Active
59 | COc1ccc2c3c1O[C@H]1C[C@@H](O)C=C[C@@]31CCN(C)C2 [GALANTAMINE] | Not Active
60 | Nc1ccn([C@@H]2O[C@H](CO)[C@@H](O)C2(F)F)c(=O)n1 [GEMCITABINE] | Not Active
61 | CC(C)=CCC/C(C)=C/CO [GERANIOL] | Not Active
62 | N=C(N)NC(=O)Cc1c(Cl)cccc1Cl [GUANFACINE] | Not Active
63 | Oc1c(Cl)cc(Cl)c(Cl)c1Cc1c(O)c(Cl)cc(Cl)c1Cl [HEXACHLOROPHENE] | Not Active

Target: Beta-1 adrenergic receptor (Homo sapiens, UniProt P08588)
Sequence (P08588 whole entry): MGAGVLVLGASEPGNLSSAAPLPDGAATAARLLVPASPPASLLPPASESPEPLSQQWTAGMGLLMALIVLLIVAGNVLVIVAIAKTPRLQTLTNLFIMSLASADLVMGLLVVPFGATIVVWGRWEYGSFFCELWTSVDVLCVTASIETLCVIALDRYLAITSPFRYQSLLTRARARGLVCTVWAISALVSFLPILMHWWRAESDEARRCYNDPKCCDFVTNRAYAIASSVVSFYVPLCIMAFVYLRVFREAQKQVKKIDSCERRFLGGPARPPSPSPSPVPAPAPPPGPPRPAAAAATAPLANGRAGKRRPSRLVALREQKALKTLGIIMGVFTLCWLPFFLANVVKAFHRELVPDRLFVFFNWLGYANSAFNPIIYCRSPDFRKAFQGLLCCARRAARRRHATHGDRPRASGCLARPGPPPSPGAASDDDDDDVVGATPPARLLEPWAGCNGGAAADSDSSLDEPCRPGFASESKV
Assay: DRUGMATRIX: Adrenergic beta1 radioligand binding (ligand: [125I] Cyanopindolol)
Format: cell membranes, CHO-K1, Membrane
Details: cho-k1; Not Active = under 50% inhibition at 10 µM

Row | SMILES | IC50
64 | COc1cc([C@@H]2c3cc4c(cc3[C@@H](O[C@@H]3O[C@@H]5CO[C@@H](C)O[C@H]5[C@H](O)[C@H]3O)[C@H]3COC(=O)[C@H]23)OCO4)cc(OC)c1O [ETOPOSIDE] | Not Active
65 | C=CCc1ccc(O)c(OC)c1 [EUGENOL] | Not Active
66 | CC(C(=O)O)c1cccc(Oc2ccccc2)c1 (centres undefined) [FENOPROFEN] | Not Active
67 | CC(C)(C)NC(=O)[C@H]1CC[C@H]2[C@@H]3CC[C@H]4NC(=O)C=C[C@]4(C)[C@H]3CC[C@]12C [FINASTERIDE] | Not Active
68 | COc1ccc2c3c1O[C@H]1C[C@@H](O)C=C[C@@]31CCN(C)C2 [GALANTAMINE] | Not Active
69 | Nc1ccn([C@@H]2O[C@H](CO)[C@@H](O)C2(F)F)c(=O)n1 [GEMCITABINE] | Not Active
70 | CC(C)=CCC/C(C)=C/CO [GERANIOL] | Not Active
71 | N=C(N)NC(=O)Cc1c(Cl)cccc1Cl [GUANFACINE] | Not Active
72 | Oc1c(Cl)cc(Cl)c(Cl)c1Cc1c(O)c(Cl)cc(Cl)c1Cl [HEXACHLOROPHENE] | Not Active

Test system: not listed separately
Assay: DRUGMATRIX: Tumor Necrosis Factor (TNF), Non-Selective radioligand binding (ligand: [125I] TNF-alpha)
Format: cell membranes, Membrane
Details: u-937; Not Active = under 50% inhibition at 10 µM

Row | SMILES | IC50 | Ki
73 | COc1cc([C@@H]2c3cc4c(cc3[C@@H](O[C@@H]3O[C@@H]5CO[C@@H](C)O[C@H]5[C@H](O)[C@H]3O)[C@H]3COC(=O)[C@H]23)OCO4)cc(OC)c1O [ETOPOSIDE] | Not Active | Not Active
74 | C=CCc1ccc(O)c(OC)c1 [EUGENOL] | Not Active | Not Active
75 | CC(C(=O)O)c1cccc(Oc2ccccc2)c1 (centres undefined) [FENOPROFEN] | Not Active | Not Active
76 | CC(C)(C)NC(=O)[C@H]1CC[C@H]2[C@@H]3CC[C@H]4NC(=O)C=C[C@]4(C)[C@H]3CC[C@]12C [FINASTERIDE] | Not Active | Not Active
77 | COc1ccc2c3c1O[C@H]1C[C@@H](O)C=C[C@@]31CCN(C)C2 [GALANTAMINE] | Not Active | Not Active
78 | Nc1ccn([C@@H]2O[C@H](CO)[C@@H](O)C2(F)F)c(=O)n1 [GEMCITABINE] | Not Active | Not Active
79 | CC(C)=CCC/C(C)=C/CO [GERANIOL] | Not Active | Not Active
80 | N=C(N)NC(=O)Cc1c(Cl)cccc1Cl [GUANFACINE] | Not Active | Not Active
81 | Oc1c(Cl)cc(Cl)c(Cl)c1Cc1c(O)c(Cl)cc(Cl)c1Cl [HEXACHLOROPHENE] | Not Active | Not Active
